Key:
[1] = test system: NCIH 460 cells; experiment: Anti-cancer screen (MTT), NCIH460; type: cell-based; conditions: Homo sapiens, NCI-H460, NCIH460 cells, 48 hours, MTT; for GI50: concentration to decrease % growth by 50%; for IC100: concentration to decrease % growth by 100%, read-out: NCIH460 TGI; for LC50: concentration to decrease % growth by 150%
Method: (§1) Experimental drugs are screened for anti-cancer activity in three cell lines for their GI50, TGI and LC50 values (using five concentrations for each compound). The cell lines are maintained in DMEM containing 10% fetal bovine serum. 96 well micro titer plates are inoculated with cells in 100 μL for 24 h at 37° C., 5% CO2, 95% air and 100% relative humidity. 5000 HCT 116 cells/well, 5000 NCIH 460 cells/well and 5000 U251 cells/well are plated. A separate plate with these cell lines is also inoculated to determine cell viability before the addition of the compounds (T0).
(§2) Following 24-hour incubation, experimental drugs are added to the 96 well plates. Each plate contains one of the above cell lines and the following in triplicate: five different concentrations (0.01, 0.1, 1, 10 and 100 μM) of four different compounds, appropriate dilutions of a cytotoxic standard and control (untreated) wells. Compounds are dissolved in DMSO to make 20 mM stock solutions on the day of drug addition and frozen at −20° C. Serial dilutions of these 20 mM stock solutions are made in complete growth medium such that 100 μL of these drug solutions in medium, of final concentrations equaling 0.01, 0.1, 1, 10 and 100 μM can be added to the cells in triplicate. Standard drugs whose anti-cancer activity has been well documented and which are regularly used are doxorubicin and SAHA.
(§3) For To measurement, 24 hours after seeding the cells, 10 μL of 3-(4,5-Dimethyl-2-thiazolyl)-2,5-diphenyl-2H-tetrazolium (MTT) solution per well is added and incubation carried out for 3 hours at 37° C., 5% CO2, 95% air and 100% relative humidity, protected from light. Cells incubated with compounds for 48 hours are treated similarly except with the addition of 20 μL MTT solution per well and a subsequent incubation under the same conditions. After 3 hours of MTT incubation, well contents are aspirated carefully followed by addition of 150 μL DMSO per well. Plates are agitated to ensure solution of the formazan crystals in DMSO and absorbance read at 570 nm. […]

[2] = test system: HCT 116 cells; experiment: Anti-cancer screen (MTT), HCT116; type: cell-based; conditions: Homo sapiens, HCT-116, HCT116 cells, 48 hours, MTT; for GI50: concentration to decrease % growth by 50%; for IC100: concentration to decrease % growth by 100%, read-out: HCT116 TGI; for LC50: concentration to decrease % growth by 150%
Method: as §1, §2, §3

[3] = test system: MDAMB231/U251; experiment: Anti-cancer screen (MTT), MDAMB231/U251; type: cell-based; conditions: MDAMB231/U251 cells, 48 hours; for GI50: concentration to decrease % growth by 50%; for IC100: concentration to decrease % growth by 100%, read-out: MDAMB231/U251 TGI; for LC50: concentration to decrease % growth by 150%
Method: as §1, §2, §3

[4] = test system: NCIH460, HCT116, MDAMB231/U251; experiment: Anti-cancer screen, mean GI50 over the cell lines; type: cell-based; conditions: in µM
Method: as §1, §2, §3

[5] = test system: HDAC (Mouse Liver Extract); experiment: Histone Deacetylase (HDAC) Inhibition Assay using Boc-Lys (Ac)-AMC Substrate; type: biochemical; conditions: mouse liver enzyme, NA = No Activity; for HDAC Inhibition 1 μM / HDAC Inhibition 10 μM: in % (unit assumed)
Excerpt: HDAC Activitv Screening: Histone Deacetylase (HDAC) Inhibition Assay using Boc-Lys (Ac)-AMC Substrate:
Inhibition of HDAC has been implicated to modulate transcription and to induce apoptosis or differentiation in cancer cells. The fluorometric assay provides a fast and fluorescence based method that eliminates radioactivity, extractions or chromatography, as used in traditional assays. The assay based on two steps. First, the HDAC fluorometric substrate, which comprises an acetylated lysine side chain, is incubated with a sample containing HDAC activity (Mouse Liver Extract). Deacetylation of the substrate sensitizes the substrate, in the second step; treatment with the Trypsin stop solution produces a fluorophore that can be easily analyzed using fluorescence plate reader.
Assay was done in 96 well black microplate and total volume of the assay is 100 ul. Mouse liver enzyme is diluted 1:6 with HDAC buffer. Enzyme cocktail made of 10 ul of diluted enzyme and 30 ul of HDAC buffer. 40 ul of enzyme cocktail dispensed into each well. 10 ul of different concentrations of inhibitor added in to each well, except enzyme control well. Preincubated the plate at 30° C. for 5 minutes. The HDAC reaction is started by adding 50 ul of HDAC substrate (Boc-Lys (Ac)-AMC Substrate) solution. Incubated the plate at 30° C. for 30 minutes. Adding 100 ul of Trypsin stop solution stops the reaction. The plate is incubated again at 30° C. for 20-30 minutes. The release of AMC is monitored by measuring the fluorescence at excitation wavelength of 365 or 360 nm and emission wavelength of 440 or 460 nm. Buffer and substrate alone kept for blank subtraction. (Dennis Wegener et al, Anal. Biochem, 321, 2003, 202-208).

CC(=O)SCCCCCC(=O)N1CCN(CC(=O)Nc2ccccc2)CC1 [Example 18, 2-[4-(6-Thioacetylhexanoyl)piperazin-1-yl]-N-(phenyl-2-yl)acetamide]
GI50 [1]: 30 µM
IC100 [1]: > 100 µM
LC50 [1]: > 100 µM
GI50 [2]: 63 µM
IC100 [2]: > 100 µM
LC50 [2]: > 100 µM
GI50 [3]: > 100 µM
IC100 [3]: > 100 µM
LC50 [3]: > 100 µM
Mean GI50 [4]: 46.50
HDAC Inhibition 1 μM [5]: 65.15
HDAC Inhibition 10 μM [5]: 94.50

CC(=O)SCCCCC(=O)N1CCN(CC(=O)Nc2nc(C)cs2)CC1 [Example 4, 2-[4-(5-Thioacetylpentanoyl)piperazin-1-yl]-N-(4-methyl-1,3-thiazol-2-yl)acetamide]
GI50 [1]: 9 µM
IC100 [1]: 91 µM
LC50 [1]: > 100 µM
GI50 [2]: 60 µM
IC100 [2]: > 100 µM
LC50 [2]: > 100 µM
GI50 [3]: 45 µM
IC100 [3]: > 100 µM
LC50 [3]: > 100 µM
Mean GI50 [4]: 38
HDAC Inhibition 1 μM [5]: 15.82
HDAC Inhibition 10 μM [5]: 50.88

CC(=O)ON(C(C)=O)C(=O)CCCCCCC(=O)N1CCN(CC(=O)Nc2nc3ccc(C)cc3s2)CC1 [Example 38]
GI50 [1]: 40 µM
IC100 [1]: > 100 µM
LC50 [1]: > 100 µM
GI50 [2]: 25 µM
IC100 [2]: 88 µM
LC50 [2]: > 100 µM
GI50 [3]: 0.4 µM
IC100 [3]: 30 µM
LC50 [3]: > 100 µM
Mean GI50 [4]: >100
HDAC Inhibition 1 μM [5]: 37.83
HDAC Inhibition 10 μM [5]: 84.23

CCOc1ccc2nc(NC(=O)CN3CCN(C(=O)CCCCCCC(=O)N(O)C(C)=O)CC3)sc2c1 [Example 37, 8-{4-[2-(6-Ethoxy-1,3-benzothiazol-2-ylamino)-2-oxoethyl]piperazin-1-yl}-N-acetyl-N-hydroxy-8-oxooctanamide]
GI50 [1]: 40 µM
IC100 [1]: 74 µM
LC50 [1]: > 100 µM
GI50 [2]: 7 µM
IC100 [2]: 44 µM
LC50 [2]: > 100 µM
GI50 [3]: 4 µM
IC100 [3]: 45 µM
LC50 [3]: 95 µM
Mean GI50 [4]: 17.00
HDAC Inhibition 1 μM [5]: 55.57
HDAC Inhibition 10 μM [5]: 94.70

O=C(CCCCCCC(=O)N1CCN(CC(=O)Nc2cccc(F)c2)CC1)NO [Example 36, 8-{4-[2-(3-Fluorophenyl-2-ylamino)-2-oxoethyl]piperazin-1-yl}-N-hydroxy-8-oxo octanamide]
GI50 [1]: 52 µM
IC100 [1]: > 100 µM
LC50 [1]: > 100 µM
GI50 [2]: 40 µM
IC100 [2]: 82 µM
LC50 [2]: > 100 µM
GI50 [3]: 27 µM
IC100 [3]: 62 µM
LC50 [3]: > 100 µM
Mean GI50 [4]: 39.67
HDAC Inhibition 1 μM [5]: 98.2
HDAC Inhibition 10 μM [5]: 72.99
IC50 [5]: 0.95 µM

CC(=O)SCCCCCC(=O)N1CCN(C(=O)CNc2nc3ccc(C)cc3s2)CC1 [Example 3, N-{2-[4-(6-thioacetylhexanoyl)piperazin-1-yl]-2-oxoethyl}-6-methyl-1,3-benzo thiazol-2-amine]
GI50 [1]: > 100 µM
IC100 [1]: > 100 µM
LC50 [1]: > 100 µM
GI50 [2]: 49 µM
IC100 [2]: 99 µM
LC50 [2]: > 100 µM
GI50 [3]: 48 µM
IC100 [3]: > 100 µM
LC50 [3]: > 100 µM
Mean GI50 [4]: >100
HDAC Inhibition 1 μM [5]: 42.40
HDAC Inhibition 10 μM [5]: 86.74

CC(=O)N(OCc1ccccc1)C(=O)CCCCCCC(=O)N1CCN(CC(=O)Nc2nc3c(C)cccc3s2)CC1 [Example 41]
GI50 [1]: 26 µM
IC100 [1]: 100 µM
LC50 [1]: > 100 µM
GI50 [2]: 4.5 µM
IC100 [2]: 53 µM
LC50 [2]: > 100 µM
GI50 [3]: 0.1 µM
IC100 [3]: 6.2 µM
LC50 [3]: > 100 µM
Mean GI50 [4]: 10.2
HDAC Inhibition 1 μM [5]: 0.6

CC(=O)SCCCCC(=O)N1CCN(CC(=O)Nc2nc3ccc(C)cc3s2)CC1 [Example 11, 2-[4-(5-Thioacetylpentanoyl)piperazin-1-yl]-N-(6-methyl-1,3-benzothiazol-2-yl)acetamide]
GI50 [1]: 0.3 µM
IC100 [1]: 0.9 µM
LC50 [1]: 8 µM
GI50 [2]: 5 µM
IC100 [2]: 40 µM
LC50 [2]: > 100 µM
GI50 [3]: 1 µM
IC100 [3]: 8 µM
LC50 [3]: > 100 µM
Mean GI50 [4]: 2.10
HDAC Inhibition 1 μM [5]: 31.75
HDAC Inhibition 10 μM [5]: 65.63
IC50 [5]: 6.5 µM

CC(=O)SCCCCC(=O)N1CCN(CC(=O)Nc2nc(C(C)(C)C)cs2)CC1 [Example 14, 2-[4-(5-Thioacetylpentanoyl)piperazin-1-yl]-N-(4-tertiarybutyl-1,3-thiazol-2-yl)acetamide]
GI50 [1]: > 100 µM
IC100 [1]: > 100 µM
LC50 [1]: > 100 µM
GI50 [2]: 50 µM
IC100 [2]: > 100 µM
LC50 [2]: > 100 µM
GI50 [3]: 0.08 µM
IC100 [3]: 27 µM
LC50 [3]: > 100 µM
Mean GI50 [4]: >100
HDAC Inhibition 1 μM [5]: 23.11
HDAC Inhibition 10 μM [5]: 57.33

CC(=O)N(O)C(=O)CCCCCCC(=O)N1CCN(CC(=O)Nc2nc3ccccc3s2)CC1 [Example 39, 8-{4-[2-(1,3-Benzothiazol-2-ylamino)-2-oxoethyl]piperazin-1-yl}-N-acetyl-N-hydroxy-8-oxo octanamide]
GI50 [1]: 44 µM
IC100 [1]: 48 µM
LC50 [1]: > 100 µM
GI50 [2]: 8 µM
IC100 [2]: 57 µM
LC50 [2]: 98 µM
GI50 [3]: 22 µM
IC100 [3]: 52 µM
LC50 [3]: 78 µM
Mean GI50 [4]: 24.7
HDAC Inhibition 1 μM [5]: 81.4
HDAC Inhibition 10 μM [5]: 96.6
IC50 [5]: 0.55 µM

Cc1ccc2nc(NC(=O)CN3CCN(C(=O)CCCCCCC(=O)NO)CC3)sc2c1 [Example 35, 8-{4-[2-(6-Methyl-1,3-benzothiazol-2-ylamino)-2-oxoethyl]piperazin-1-yl}-N-hydroxy-8-oxo octanamide]
GI50 [1]: 56 µM
IC100 [1]: 100 µM
LC50 [1]: > 100 µM
GI50 [2]: 8 µM
IC100 [2]: 40 µM
LC50 [2]: 92 µM
GI50 [3]: 5 µM
IC100 [3]: 45 µM
LC50 [3]: > 100 µM
Mean GI50 [4]: 23
HDAC Inhibition 1 μM [5]: 68.3
HDAC Inhibition 10 μM [5]: 96.93

O=C(CCCCCCC(=O)N1CCN(CC(=O)Nc2nccs2)CC1)NO [Example 34, 8-{4-[2-(1,3-Thiazol-2-ylamino)-2-oxoethyl]piperazin-1-yl}-N-hydroxy-8-oxo octanamide]
GI50 [1]: > 100 µM
IC100 [1]: > 100 µM
LC50 [1]: > 100 µM
GI50 [2]: 50 µM
IC100 [2]: > 100 µM
LC50 [2]: > 100 µM
GI50 [3]: 6 µM
IC100 [3]: 74 µM
LC50 [3]: > 100 µM
Mean GI50 [4]: 28
HDAC Inhibition 1 μM [5]: 45.65
HDAC Inhibition 10 μM [5]: 89.86
